# PubChem BioAssay (NCI)
#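 Five compound concentrations were applied to cells in 96-well plates for 48 hours; endpoints were derived by simple linear interpolation of the resulting dose-response curve. The concentration for 50% growth inhibition is given as GI50. TGI: total growth inhibition.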
# Legend:
# Experiment in all cases: growth of human tumour cells (NCI), 48 h
# [1] = system: EKVX NSCLC
# [2] = system: KM12 colon
# [3] = system: RXF 393 renal
# [4] = system: IGROV1 ovarian
# [5] = system: BT-549 breast
# [6] = system: SK-MEL-28 melanoma
# [7] = system: U251 CNS
# [8] = system: A549 NSCLC
# [9] = system: SF-295 CNS
# [10] = system: 786-0 renal
# [11] = system: HOP-92 NSCLC
# [12] = system: MDA-MB-231 breast
# [13] = system: UACC-257 melanoma
# [14] = system: LOX IMVI melanoma
# [15] = system: COLO 205 colon
# [16] = system: SF-539 CNS
# [17] = system: OVCAR-8 ovarian
# [18] = system: SR leukemia
# [19] = system: MCF7 breast
# [20] = system: A498 renal
# [21] = system: SN12C renal
# [22] = system: M14 melanoma
# [23] = system: UACC-62 melanoma
# [24] = system: HT29 colon
# [25] = system: CAKI-1 renal
# [26] = system: K-562 leukemia
# [27] = system: NCI-H226 lung
# [28] = system: HCT-15 colon
# [29] = system: OVCAR-3 ovarian
compound,measurement,setting,value
CC1(C)[C@@H](OC(N)=O)[C@H]2O[C@H]2[C@]2(CO)[C@H]3CC[C@]4(C)[C@@H](c5ccc(=O)oc5)[C@@H](Cl)C[C@]4(O)C3=CC[C@@H]12,GI50,[1],0.00534 µM
same,TGI,[1],< 0.0138 µM
same,GI50,[2],0.0107 µM
same,TGI,[2],0.0445 µM
same,GI50,[3],0.00716 µM
same,TGI,[3],0.0829 µM
same,GI50,[4],0.0116 µM
same,TGI,[4],0.0938 µM
same,GI50,[5],0.00695 µM
same,TGI,[5],0.0257 µM
same,GI50,[6],0.016 µM
same,TGI,[6],0.0902 µM
same,GI50,[7],0.00858 µM
same,TGI,[7],0.0297 µM
same,GI50,[8],0.00469 µM
same,TGI,[8],0.0088 µM
same,GI50,[9],0.0072 µM
same,TGI,[9],0.0264 µM
same,GI50,[10],0.0052 µM
same,TGI,[10],0.0136 µM
same,GI50,[11],0.0127 µM
same,TGI,[11],0.0921 µM
same,GI50,[12],0.0283 µM
same,TGI,[12],0.103 µM
same,GI50,[13],0.012 µM
same,TGI,[13],0.045 µM
same,GI50,[14],0.00595 µM
same,TGI,[14],0.0157 µM
same,GI50,[15],0.0109 µM
same,TGI,[15],0.0506 µM
same,GI50,[16],0.00453 µM
same,TGI,[16],0.00951 µM
same,GI50,[17],0.00863 µM
same,TGI,[17],0.0297 µM
same,GI50,[18],0.00681 µM
same,TGI,[18],0.0195 µM
same,GI50,[19],0.00745 µM
same,TGI,[19],0.0512 µM
same,GI50,[20],0.0144 µM
same,TGI,[20],0.0748 µM
same,GI50,[21],0.00766 µM
same,TGI,[21],0.0325 µM
same,GI50,[22],0.0161 µM
same,TGI,[22],0.0558 µM
same,GI50,[23],0.00892 µM
same,TGI,[23],0.0332 µM
same,GI50,[24],0.00796 µM
same,TGI,[24],0.0238 µM
same,GI50,[25],0.00521 µM
same,TGI,[25],0.0132 µM
same,GI50,[26],0.00978 µM
same,TGI,[26],0.0547 µM
same,GI50,[27],0.0061 µM
same,TGI,[27],0.0152 µM
same,GI50,[28],0.00798 µM
same,TGI,[28],0.0304 µM
same,GI50,[29],0.00618 µM
same,TGI,[29],0.014 µM
